Patent USRE38257E1, “Piperdine derivatives and hypotensives containing the same” (Ajinomoto Co., Inc., priority 1988, dated 2003)

Test system: male spontaneously hypertensive rats
Test: Decrease in systolic blood pressure in spontaneously hypertensive rats after intravenous bolus injection, indirect (tail-cuff) method
Format: in vivo, rat
Conditions: for Decrease in systolic blood pressure (mmHg) time after administration (hour) 0.5: 0.5 hour after administration; for Decrease in systolic blood pressure (mmHg) time after administration (hour) 4: 4 hours after administration
Procedure: As test animals, four male spontaneously hypertensive rats (weight 400 to 440 g) that were sufficiently adapted for feeding and in which hypertension was confirmed were used.
Physiological saline aqueous solution containing 2.5% Nicolle and 2.5% ethanol of sample was intravenously administered by bolus injection at a dose of 1 ml per 1 kg of body weight. Systolic blood pressure after administration was measured by the indirect (tail-cuff) method.

[1] = dose 10 mg/kg i.v. bolus, hydrochloride, 10 mg/kg

Compound	Decrease in systolic blood pressure (mmHg) time after administration (hour) 0.5 (dose 10 mg/kg i.v. bolus) [mmHg]	Decrease in systolic blood pressure (mmHg) time after administration (hour) 4 (dose 10 mg/kg i.v. bolus) [mmHg]	other results
CC(=O)Oc1cccc(C=CCN2CCC(=C3c4ccccc4C=Cc4ccccc43)CC2)c1.Cl [Example 368, 1-(3-Acetoxycinnamyl)-4-(5H-Dibenzo[a,d]cyclohepten-5-ylidene)piperidine hydrochloride]			Decrease in systolic blood pressure (mmHg) time after administration (hour) 0.5 (dose 3 mg/kg i.v. bolus): −110 mmHg; Decrease in systolic blood pressure (mmHg) time after administration (hour) 4 (dose 3 mg/kg i.v. bolus): −68 mmHg
CC(=O)Nc1cccc2c1CC(CN1CCC(=C3c4ccccc4C=Cc4ccccc43)CC1)C2.Cl (stereo not drawn) [Example 331, 4′Acetylamino-2(4-(5H-Dibenzo[a,d]cyclohepten-5-ylidene)-1-Piperidinyl)methylindan hydrochloride]	−62	−14	
N-(2-(5H-Dibenzo[a,d]cyclohepten-5-ylidene)-1-piperidinyl)ethyl isonicotinamide hydrochloride [Example 244]	−19	4	
CCC(CCN1CCC(=C2c3ccccc3C=Cc3ccccc32)CC1)C(=O)c1ccc(OC)c(OC)c1.Cl (stereo not drawn) [Example 278, 4-(4-(5H-dibenzo[a,d]cyclohepten-5-ylidene)-1-piperidinyl)-2-ethyl-3′,4′-dimethoxybutyrophenone hydrochloride]	−64	2	
O=C(Cc1ccc(F)cc1)N1CCC(=C2c3ccccc3C=Cc3ccccc32)CC1 [Example 191, 4-(5H-Dibenzo[a,d]cyclohepten-5-ylidene)-1-(2-(4-fluorophenyl)acetyl)piperidine]	−29	−20	
C1=Cc2ccccc2C(=C2CCN(CCCOC3CCCCO3)CC2)c2ccccc21.Cl (stereo not drawn) [Example 235, 3-(4-(5H-Dibenzo[a,d]cyclohepten-5-ylidene)-1-piperidinyl)-1-propyl(2-tetrahydropyranyl)ether hydrochloride]	−99	−5	
Cl.OC(CCCN1CCC(=C2c3ccccc3C=Cc3ccccc32)CC1)c1ccccc1 (stereo not drawn) [Example 101, 4-(4-(5H-Dibenzo[a,d]cyclohepten-5-ylidene)-1-piperidinyl)-1-hydroxy-1-phenylbutane hydrochloride]	−89	−14	
CC(CC(=O)c1ccccc1)N1CCC(=C2c3ccccc3C=Cc3ccccc32)CC1.Cl (stereo not drawn) [Example 100, 3-(4-(5H-Dibenzo[a,d]cyclohepten-5-ylidene)-1-piperidinyl)butyrophenone hydrochloride]	−35	−5	
CC(=O)N1CCCC(CCCN2CCC(=C3c4ccccc4C=Cc4ccccc43)CC2)C1.Cl (stereo not drawn) [Example 280, 1-(n-Acetyl-3-piperidinyl)-3-(4-(5H-Dibenzo[a,d]cyclohepten-5-ylidene)-1-piperidinyl)propane hydrochloride]	−50	−11	
COc1cc(CN2CCC(=C3c4ccccc4C=Cc4ccccc43)CC2)cc(OC)c1OC [Example 188, 4-(5H-Dibenzo[a,d]cyclohepten-5-ylidene)-1-(3,4,5-trimethoxybenzyl)piperidine]	−94	−12	
C1=Cc2ccccc2C(=C2CCN(CCCCc3ccc[nH]3)CC2)c2ccccc21.Cl [Example 293, 4-(4-(5H-Dibenzo[a,d]cyclohepten-5-ylidene)-1-piperidinyl)-1-(2-pyrolle)-1-butane hydrochloride]	−122	4	
C1=Cc2ccccc2C(=C2CCN(CCCCC3CCCCC3)CC2)c2ccccc21.Cl [Example 10, 1-Cyclohexyl-4-(4-(5H-dibenzo[a,d]cyclohepten-5-ylidene)-1-piperidinyl)butane hydrochloride]			Decrease in systolic blood pressure (mmHg) time after administration (hour) 0.5 [1]: −129 mmHg; Decrease in systolic blood pressure (mmHg) time after administration (hour) 4 [1]: −21 mmHg
COc1cc(C=CCN2CCC(=C3c4ccccc4C=Cc4ccccc43)CC2)cc(OC)c1.Cl [Example 345, 4-(5H-Dibenzo[a,d]cyclohepten-5-ylidene)-1-(3,5-dimethoxycinnamyl)piperidine hydrochloride]			Decrease in systolic blood pressure (mmHg) time after administration (hour) 0.5 (dose 3 mg/kg i.v. bolus): −120 mmHg; Decrease in systolic blood pressure (mmHg) time after administration (hour) 4 (dose 3 mg/kg i.v. bolus): −95 mmHg
Cl.N#Cc1ccc(C=CCN2CCC(=C3c4ccccc4C=Cc4ccccc43)CC2)cc1 [Example 346, 1-(4-Cyanocinnamyl)-4-(5H-Dibenzo[a,d]cyclohepten-5-ylidene)-1-piperidine hydrochloride]			Decrease in systolic blood pressure (mmHg) time after administration (hour) 0.5 (dose 3 mg/kg i.v. bolus): −142 mmHg; Decrease in systolic blood pressure (mmHg) time after administration (hour) 4 (dose 3 mg/kg i.v. bolus): −121 mmHg
Cl.O=[N+]([O-])c1ccc2c(c1)CC(CN1CCC(=C3c4ccccc4C=Cc4ccccc43)CC1)C2 (stereo not drawn) [Example 332, 2-(4-(5H-Dibenzo[a,d]cyclohepten-5-ylidene)-1-piperidinyl)methyl-5′-nitroindan hydrochloride]	−111	−57	
Cl.Fc1ccc(CN2CCC(=C3c4ccccc4C=Cc4ccccc43)CC2)cc1 [Example 113, 4-(5H-Dibenzo[a,d]cyclohepten-5-ylidene)-1-(4-fluorobenzyl)piperidine hydrochloride]			Decrease in systolic blood pressure (mmHg) time after administration (hour) 0.5 (dose 1 mg/kg i.v. bolus): −151 mmHg; Decrease in systolic blood pressure (mmHg) time after administration (hour) 4 (dose 1 mg/kg i.v. bolus): −81 mmHg
CCOC(=O)C1CCN(C(=O)CCCN2CCC(=C3c4ccccc4C=Cc4ccccc43)CC2)CC1.Cl [Example 217, 1-(4-(4-(5H-Dibenzo[a,d]cyclohepten-5-ylidene)-1-piperidinyl)butanoyl)-4-ethoxyxarbonpiperidine hydrochloride]	−18	−20	
Cl.O=C1Cc2ccccc2C(=C2CCN(CCCCC3CCCCC3)CC2)c2ccsc21 [Example 180]	−25	−24	
Cl.Cl.Nc1ccc(C=CCN2CCC(=C3c4ccccc4CCc4ccccc43)CC2)cc1 [Example 351, 1-(4-Aminocinnamyl)-4-(10,11-dihydro-5H-Dibenzo[a,d]cyclohepten-5-ylidene)-1-piperidine dihydrochloride]			Decrease in systolic blood pressure (mmHg) time after administration (hour) 0.5 (dose 3 mg/kg i.v. bolus): −70 mmHg; Decrease in systolic blood pressure (mmHg) time after administration (hour) 4 (dose 3 mg/kg i.v. bolus): −21 mmHg
COc1ccc(C(=O)C(CCN2CCC(=C3c4ccccc4C=Cc4ccccc43)CC2)C(C)C)cc1OC.Cl (stereo not drawn) [Example 275, 4-(4-(5H-Dibenzo[a,d]cyclohepten-5-ylidene)-1-piperidinyl)-2-(2-propyl)-3′,4′-dimethoxybutyrophenone hydrochloride]	−66	−20	
C1=Cc2ccccc2C(=C2CCN(CCCc3ccccc3)CC2)c2ccccc21.Cl [Example 14, 3-(4-(5H-Dibenzo[a,d]cyclohepten-5-ylidene)-1-piperidinyl)-1-phenylpropane hydrochloride]	−105	−10	
Cl.O=[N+]([O-])c1ccc(C=CCN2CCC(=C3c4ccccc4C=Cc4ccccc43)CC2)cc1 [Example 325, (5H-Dibenzo[a,d]cyclohepten-5-ylidene)-1-(4-nitrocinnamyl)piperidine hydrochloride]	−115	−100	
CN1CCCC(CCCCN2CCC(=C3c4ccccc4C=Cc4ccccc43)CC2)C1.Cl.Cl (stereo not drawn) [Example 295, 4-(4-(5H-Dibenzo[a,d]cyclohepten-5-ylidene)-1-piperidinyl)-1-(N-methyl-3-piperidinyl)butane dihydrochloride]			Decrease in systolic blood pressure (mmHg) time after administration (hour) 0.5 (dose 3 mg/kg i.v. bolus): −36 mmHg; Decrease in systolic blood pressure (mmHg) time after administration (hour) 4 (dose 3 mg/kg i.v. bolus): 1 mmHg
Cl.Cl.Nc1ccccc1CN1CCC(=C2c3ccccc3C=Cc3ccccc32)CC1 [Example 138, 1-(2-Aminobenzy)-4-(5H-Dibenzo[a,d]cyclohepten-5-ylidene)piperidine dihydrochloride]	−129	−33	
Cl.Fc1ccc(C=CCN2CCC(=C3c4ccccc4C=Cc4ccccc43)CC2)cc1 [Example 353]	−147	−138	
C1=Cc2ccccc2C(=C2CCN(CCCC3CCCCC3)CC2)c2ccccc21.Cl [Example 9, 1-Cyclohexyl-3-(4-(5H-dibenzo[a,d]cyclohepten-5-ylidene)-1-piperidinyl)propane hydrochloride]	−91	−19	
5-(4-(5H-Dibenzo[a,d]cyclohepten-5-ylidene)-1-piperidinyl)-2-phenylvaleronitrile hydrochloride [Example 121]	−42	−19	
